Reference: patent publication US11109593B2, “Isoxazolin-5-one derivative and herbicide containing same as active ingredient” (HOKKO CHEMICAL INDUSTRY CO., LTD., priority 2017, dated 2021)

How the values were obtained:
Scirpus juncoides [1] = assay: Test Example 2: herbicidal effect test by treatment during growing period in paddy rice cultivation (seven days after seeding); type: in vivo; settings: Schoenoplectiella juncoides, 336 h, 120 g/10a active ingredient, assessed 14 days after treatment, dry weight vs untreated area, read-out: herbicidal rate (%) Scirpus juncoides
Summary of the method: (§1)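 Seeds sown 0–1 cm deep in puddled, fertilised paddy soil with about 3 cm standing water in a glass greenhouse. Diluted emulsion dropped into the water seven days after seeding at 120 g active ingredient per 10 ares. Herbicidal rate (%) from mean dry weight vs untreated, duplicate, 14 days after treatment.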

Echinochloa crus-galli [2] = assay: as above; type: in vivo; settings: Echinochloa crus-galli, 336 h, 120 g/10a active ingredient, assessed 14 days after treatment, dry weight vs untreated area, read-out: herbicidal rate (%) Echinochloa crus-galli
Summary of the method: as §1

[3] = tested on: broad leaf weeds (Lindernia pyxidaria and Monochoria vaginalis); assay: as above; type: in vivo; settings: 336 h, 120 g/10a active ingredient, assessed 14 days after treatment, dry weight vs untreated area
Summary of the method: as §1

Amaranthus viridis [4] = assay: Test Example 3: herbicidal effect test by treatment of dry field farming soil (one day after seeding); type: in vivo; settings: Amaranthus viridis, 336 h, 120 g/10a active ingredient, evaluated 14 days after treatment, read-out: herbicidal rate, Amaranthus viridis
Summary of the method: (§2)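 Alluvial dry-field soil in pots, top 1 cm mixed with 20 seeds per weed species. One day after seeding, the water-diluted emulsion was sprayed onto the soil surface at 100 L per 10 ares (120 g active ingredient per 10 ares). Duplicate pots; herbicidal rate (%) from plant dry weight versus untreated, 14 days after treatment.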

Chenopodium album [5] = assay: as above; type: in vivo; settings: Chenopodium album, 336 h, 120 g/10a active ingredient, evaluated 14 days after treatment, read-out: herbicidal rate, Chenopodium album
Summary of the method: as §2

Echinochloa crus-galli [6] = assay: as above; type: in vivo; settings: Echinochloa crus-galli, 336 h, 120 g/10a active ingredient, evaluated 14 days after treatment, read-out: herbicidal rate, Echinochloa crus-galli
Summary of the method: as §2

southern crabgrass [7] = assay: as above; type: in vivo; settings: Digitaria ciliaris, 336 h, 120 g/10a active ingredient, evaluated 14 days after treatment, read-out: herbicidal rate, southern crabgrass
Summary of the method: as §2

Amaranthus viridis [8] = assay: Test Example 4: herbicidal effect test by treatment of leave and stem in dry field farming (seven days after seeding); type: in vivo; settings: Amaranthus viridis, 336 h; 120 g/10a active ingredient; emulsion sprayed seven days after seeding; evaluated 14 days after treatment; read-out: herbicidal effect (herbicidal rate), Amaranthus viridis
Summary of the method: (§3)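 Duplicate pots were scored 14 days post-spray by dry weight, herbicidal rate = {1 − treated/untreated average dry weight} × 100. The water-diluted emulsion, equivalent to 120 g active ingredient per 10 ares in 100 L, was applied seven days after sowing 20 seeds each into the upper 1 cm of alluvial soil.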

Chenopodium album [9] = assay: as above; type: in vivo; settings: Chenopodium album, 336 h; 120 g/10a active ingredient; emulsion sprayed seven days after seeding; evaluated 14 days after treatment; read-out: herbicidal effect (herbicidal rate), Chenopodium album
Summary of the method: as §3

Echinochloa crus-galli [10] = assay: as above; type: in vivo; settings: Echinochloa crus-galli, 336 h; 120 g/10a active ingredient; emulsion sprayed seven days after seeding; evaluated 14 days after treatment; read-out: herbicidal effect (herbicidal rate), Echinochloa crus-galli
Summary of the method: as §3

southern crabgrass [11] = assay: as above; type: in vivo; settings: Digitaria ciliaris, 336 h; 120 g/10a active ingredient; emulsion sprayed seven days after seeding; evaluated 14 days after treatment; read-out: herbicidal effect (herbicidal rate), southern crabgrass
Summary of the method: as §3

Scirpus juncoides [12] = assay: Test Example 1: herbicidal effect test by treatment of rice paddy soil (immediately after seeding); type: in vivo; settings: in Schoenoplectiella juncoides, 336 h, 120 g/10a active ingredient, dry weight vs untreated area, 14 days after treatment, read-out: Herbicidal rate (%) Scirpus juncoides
Summary of the method: (§4)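 Application occurs immediately after seeding, with diluted emulsion added to paddy water (about 3 cm deep) over puddled, fertilized soil at 120 g active ingredient per 10 ares. Herbicidal rate is calculated from mean dry weight against untreated controls 14 days later.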

Echinochloa crus-galli [13] = assay: as above; type: in vivo; settings: in Echinochloa crus-galli, 336 h, 120 g/10a active ingredient, dry weight vs untreated area, 14 days after treatment, read-out: Herbicidal rate (%) Echinochloa crus-galli
Summary of the method: as §4

[14] = tested on: broad leaf weeds (Lindernia pyxidaria and Monochoria vaginalis); assay: as above; type: in vivo; settings: 336 h, 120 g/10a active ingredient, dry weight vs untreated area, 14 days after treatment
Summary of the method: as §4

[15] = Lindernia pyxidaria, read-out: herbicidal rate (%) Lindernia pyxidaria
[16] = Monochoria vaginalis, read-out: herbicidal rate (%) Monochoria vaginalis
[17] = Monochoria vaginalis, read-out: Herbicidal rate (%) Monochoria vaginalis
[18] = in Lindernia, Lindernia pyxidaria, read-out: Herbicidal rate (%) Lindernia pyxidaria

Row | melting point [°C] | Compound | pest or weed control at 1200 g/ha (Scirpus juncoides [1]) [%] | pest or weed control at 1200 g/ha (Echinochloa crus-galli [2]) [%] | pest or weed control at 1200 g/ha [3, 15] [%] | pest or weed control at 1200 g/ha [3, 16] [%] | pest or weed control at 1200 g/ha (Amaranthus viridis [4]) [%] | pest or weed control at 1200 g/ha (Chenopodium album [5]) [%] | pest or weed control at 1200 g/ha (Echinochloa crus-galli [6]) [%] | pest or weed control at 1200 g/ha (southern crabgrass [7]) [%] | pest or weed control at 1200 g/ha (Amaranthus viridis [8]) [%] | pest or weed control at 1200 g/ha (Chenopodium album [9]) [%] | pest or weed control at 1200 g/ha (Echinochloa crus-galli [10]) [%] | pest or weed control at 1200 g/ha (southern crabgrass [11]) [%] | pest or weed control at 1200 g/ha (Scirpus juncoides [12]) [%] | pest or weed control at 1200 g/ha (Echinochloa crus-galli [13]) [%] | pest or weed control at 1200 g/ha [14, 17] [%] | pest or weed control at 1200 g/ha [14, 18] [%]
1 | 75 to 80 | CCC(C)n1oc(=O)c(Cc2ccccc2N(C(=O)OC)S(=O)(=O)C(F)(F)F)c1C (centres unmarked) [Compound 1-577, methyl N-[2-[(3-methyl-5-oxo-2-sec-butyl-isoxazol-4-yl)methyl]phenyl]-N-(trifluoromethylsulfonyl)carbamate] | 90 | 90 | 90 | 90 | 90 | 90 | 90 | 90 | 40 | 40 | 90 | 90 | 90 | 90 | 90 | 90
2 | 107 to 109 | COCC(C)n1oc(=O)c(Cc2ccccc2NS(=O)(=O)C(F)(F)F)c1C (centres unmarked) [Compound 1-149, 1,1,1-trifluoro-N-[2-[[2-(2-methoxy-1-methyl-ethyl)-3-methyl-5-oxo-isoxazol-4-yl]methyl]phenyl]methanesulfonamide] | 90 | 100 | 90 | 90 | 40 | 40 | 90 | 90 | 40 | 40 | 90 | 90 | 90 | 90 | 90 | 90
3 | 116 to 118 | COCC(C)n1oc(=O)c(Cc2ccccc2N(S(=O)(=O)C(F)(F)F)S(=O)(=O)C(F)(F)F)c1C (centres unmarked) [Compound 1-997, 1,1,1-trifluoro-N-[2-[[2-(2-methoxy-1-methyl-ethyl)-3-methyl-5-oxo-isoxazol-4-yl]methyl]phenyl]-N-(trifluoromethylsulfonyl)methanesulfonamide] | 90 | 90 | 70 | 90 | 50 | 50 | 90 | 90 | 40 | 0 | 70 | 40 | 90 | 90 | 80 | 90
4 | 120 to 122 | Cc1c(Cc2ccccc2N(S(=O)(=O)C(F)(F)F)S(=O)(=O)C(F)(F)F)c(=O)on1CC(C)C [Compound 1-967, 1,1,1-trifluoro-N-[2-[(2-isobutyl-3-methyl-5-oxoisoxazol-4-yl)methyl]phenyl]-N-(trifluoromethylsulfonyl)methanesulfonamide] | 80 | 90 | 100 | 90 | 80 | 40 | 50 | 90 | 40 | 40 | 60 | 0 | 90 | 90 | 100 | 90
